# Patent US9540397B2, “BACE1 inhibitors” (Hoffmann-La Roche Inc., priority 2014, dated 2017)
# Columns and labels:
# BACE1 = molecular target: T1, BACE1 (Homo sapiens, UniProt P56817); experiment: Cellular Aβ-lowering assay (Abeta 40 AlphaLISA, HEK293 APP cells); assay type: cell-based; conditions: 18-20 hrs incubation, Aβ40 in culture supernatant, read-out: BACE1 cell act. Aβ40 IC50
# T1 construct: endogenous in cells; host or cells: HEK293 APP cells
# Description: Cellular Aβ-lowering assay:
# The Abeta 40 AlphaLISA Assay can be used. The HEK293 APP cells were seeded in 96 well Microtiter plates in cell culture medium (Iscove's, plus 10% (v/v) fetal bovine serum, penicillin/streptomycin) to about 80% confluency and the compounds were added at a 3× concentration in ⅓ volume of culture medium (final DMSO concentration was kept at 1% v/v). After 18-20 hrs incubation at 37° C. and 5% CO2 in a humidified incubator, the culture supernatants were harvested for the determination of AP 40 concentrations using Perkin-Elmer Human Amyloid beta 1-40 (high specificity) Kit (Cat#AL275C).
# In a Perkin-Elmer White Optiplate-384 (Cat#6007290), 2 ul culture supernatants were combined with 2 μl of a 10× AlphaLISA Anti-hAβ Acceptor beads+Biotinylated Antibody Anti-Aβ 1-40 Mix ([…]/5 nM). After 1 hour room temperature incubation, 16 μl of a 1.25× preparation of Streptavidin (SA) Donor beads (25 μg/mL) were added and incubated for 30 minutes in the Dark. Light Emission at 615 nm was then recorded using EnVision-Alpha Reader. Levels of Aβ 40 in the culture supernatants were calculated as percentage of maximum signal (cells treated with 1% DMSO without inhibitor). The IC50 values were calculated using the Excel XLfit software.
# [1] = system: Aβ40 in brain of wild-type mice; experiment: Lowering of Aβ40 in brain of wild-type mice; assay type: in vivo; conditions: Mus musculus, po; female C57Bl/6J mice, 30 mg/kg per os, 4 h; brain Aβ40 related to the value in the vehicle group; read-out: Aβ40 (wt mice, brain)
# Description: Lowering of Aβ40 in Brain of Wild-Type Mice:
# Animals and Housing Conditions.
# Animals were maintained in a 12/12 h light/dark cycle, with lights starting at 6 a.m., and experiments were conducted during the light phase. Animal housing and experimental procedures were in line with ethical and legal guidelines and were authorized by local veterinary authorities.
# Experiment. Female C57Bl/6J mice were treated with a dose of 30 mg/kg of the compounds, 3-4 animals per treatment group. The test compound was dissolved in 5% EtOH, 10% Solutol, and was applied per os at 10 mL/kg. After 4 h, the animals were sacrificed and brain and plasma were collected. The brain was cut into halves and immediately frozen on dry ice. Brain was used for measurement of Aβ40 and plasma was used for determination of compound exposure. […] Brain tissue was homogenized in 2% DEA buffer in a Roche MagnaLyser (20″, 4000 rpm) and subsequently centrifuged for 1 h at 100000 g. DEA was reduced to 0.2% in 50 mM NaCl and one-half of the DEA lysate was passed over an Oasis Solid phase extraction plate (Waters; cat. no. 186000679), which had been activated with MeOH and equilibrated in dH2O (1 mL each). After washes in 10% and 30% MeOH (1 mL each), the Aβ-peptides were eluted in 0.8 mL of 2% NH4OH in 90% MeOH. The eluate was dried over a N2 flow, and the dried sample was reconstituted in 30 μL of AlphaLISA assay buffer. Aβ40 was determined by an AlphaLISA assay (Perkin-Elmer). In a white 96-well, half area microplate (Perkin-Elmer cat. no. 6005561), 20 μL of the reconstituted sample were mixed with 5 μL of biotinylated BAP-24 (specific for C-terminus of Aβ40) (Brockhaus, M.; Grunberg, J.; Rohrig, S.; Loetscher, H.; Wittenburg, N.; Baumeister, R.; Jacobsen, H.; Haass, C. Caspasemediated cleavage is not required for the activity of presenilins in amyloidogenesis and NOTCH signaling. NeuroReport 1998, 9, 1481-1486.) stock=4.4 mg/mL, f.c.5.5 μg/mL), and 5 μL 252Q6 acceptor beads (252Q6 antibody, Invitrogen AMB0062) had been previously conjugated with AlphaLISA Acceptor beads (Perkin-Elmer cat. no. 6772002); final dilution 1:500). The mix was incubated for 1 h at RT in the dark. Then 20 μL of Streptavin-coated Donor Beads (Perkin-Elmer cat. no. 6760002, final dilution 1:125) were added and this final mix was incubated in the dark for another 30 min at RT before RFU was measured in an AlphaScreen Reader (Perkin-Elmer Envision 2104). The value obtained for Aβ40 in the treated animals was related to the value in the vehicle group and is given in %. Alternatively a commercial ELISA was used for Aβ40 determination (Wako ELISA: (“Human/Rat β Amyloid (40) ELISA kit Wako II”; cat nr. 294-64701) following the manufacture's instruction. Also here the Aβ-lowering efficacy was calculated as percentage of the vehicle group.
# T1 sequence (P56817 46-501): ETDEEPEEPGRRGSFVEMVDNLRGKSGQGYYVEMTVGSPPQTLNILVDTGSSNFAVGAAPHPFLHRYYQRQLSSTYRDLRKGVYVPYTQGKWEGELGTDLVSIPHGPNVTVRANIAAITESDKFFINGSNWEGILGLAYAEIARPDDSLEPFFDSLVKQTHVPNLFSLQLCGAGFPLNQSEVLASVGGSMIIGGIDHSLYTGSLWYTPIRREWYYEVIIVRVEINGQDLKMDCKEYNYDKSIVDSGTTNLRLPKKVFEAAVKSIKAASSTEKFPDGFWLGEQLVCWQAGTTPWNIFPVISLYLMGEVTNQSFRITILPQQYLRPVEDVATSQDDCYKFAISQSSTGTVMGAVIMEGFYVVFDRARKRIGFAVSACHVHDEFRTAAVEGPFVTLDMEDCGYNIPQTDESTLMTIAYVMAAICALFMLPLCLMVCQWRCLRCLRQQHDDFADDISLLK
IC50 (BACE1),Compound,response vs control in vivo at 30 mg/kg [1]
0.6 nM,"Cc1cc(C#N)cnc1C(=O)Nc1ccc(F)c([C@@]2(C)N=C(N)C(C)(C)[S@@]3(=O)=NCC[C@@H]23)n1 [Example 9AB, N-(6-((3aS,4R,8R)-6-amino-4,7,7-trimethyl-8-oxido-3,3a,4,7-tetrahydro-2H-isothiazolo[1,5-a][1,4]thiazin-4-yl)-5-fluoropyridin-2-yl)-5-cyano-3-methylpicolinamide]",40%
1.3 nM,"Cc1cc(Cl)cnc1C(=O)Nc1ccc(F)c([C@@]2(C)N=C(N)C(C)(C)[S@@]3(=O)=NCC[C@@H]23)n1 [Example 12AB, N-(6-((3aS,4R,8R)-6-amino-4,7,7-trimethyl-8-oxido-3,3a,4,7-tetrahydro-2H-isothiazolo[1,5-a][1,4]thiazin-4-yl)-5-fluoropyridin-2-yl)-5-chloro-3-methylpicolinamide]",38%
18.7 nM,"COc1cnc(C(=O)Nc2ccc(F)c([C@@]3(C)N=C(N)C(C)(C)[S@@]4(=O)=NCCC[C@@H]34)n2)cn1 [Example 2AB, N-(6-((4aS,5R,9R)-7-amino-5,8,8-trimethyl-9-oxido-2,3,4,4a,5,8-hexahydro-[1,4]thiazino[2,1-f][1,2]thiazin-5-yl)-5-fluoropyridin-2-yl)-5-methoxypyrazine-2-carboxamide]",92%
6.3 nM,"CC1(C)C(N)=N[C@](C)(c2nc(NC(=O)c3ccc(OC(F)F)cn3)ccc2F)[C@@H]2CCN=[S@@]21=O [Example 14AB, N-(6-((3aS,4R,8R)-6-amino-4,7,7-trimethyl-8-oxido-3,3a,4,7-tetrahydro-2H-isothiazolo[1,5-a][1,4]thiazin-4-yl)-5-fluoropyridin-2-yl)-5-(difluoromethoxy)picolinamide]",61%
0.5 nM,"Cc1cc(C#N)cnc1C(=O)Nc1ccc(F)c([C@@]2(C)N=C(N)C(C)(C)[S@]3(=O)=NCCC[C@H]23)n1 [Example 1BA, N-(6-((4aR,5R,9S)-7-amino-5,8,8-trimethyl-9-oxido-2,3,4,4a,5,8-hexahydro-[1,4]thiazino[2,1-f][1,2]thiazin-5-yl)-5-fluoropyridin-2-yl)-5-cyano-3-methylpicolinamide]",95%
15 nM,"CC1(C)C(N)=N[C@](C)(c2nc(NC(=O)c3ccc(F)cn3)ccc2F)[C@@H]2CCN=[S@@]21=O [Example 27AB, N-(6-((3aS,4R,8R)-6-amino-4,7,7-trimethyl-8-oxido-3,3a,4,7-tetrahydro-2H-isothiazolo[1,5-a][1,4]thiazin-4-yl)-5-fluoropyridin-2-yl)-5-fluoropicolinamide]",92%
4.9 nM,"CC1(C)C(N)=N[C@](C)(c2nc(NC(=O)c3ncc(Cl)cc3Cl)ccc2F)[C@H]2CC(F)(F)CN=[S@@]21=O [Example 40AA, N-(6-((4aR,5R,9R)-7-amino-3,3-difluoro-5,8,8-trimethyl-9-oxido-2,3,4,4a,5,8-hexahydro-[1,4]thiazino[2,1-f][1,2]thiazin-5-yl)-5-fluoropyridin-2-yl)-3,5-dichloropicolinamide]",77%
115 nM,"COc1cnc(C(=O)Nc2ccc(F)c([C@@]3(C)N=C(N)C(C)(C)[S@]4(=O)=NCC[C@H]34)n2)cn1 [Example 16BA, N-(6-((3aR,4R,8S)-6-amino-4,7,7-trimethyl-8-oxido-3,3a,4,7-tetrahydro-2H-isothiazolo[1,5-a][1,4]thiazin-4-yl)-5-fluoropyridin-2-yl)-5-methoxypyrazine-2-carboxamide]",
> 40 nM,"CC1(C)C(N)=N[C@](C)(c2nc(NC(=O)c3ccc(C(=O)O)cn3)ccc2F)[C@H]2CC(F)(F)CN=[S@@]21=O [Example 44AA, 6-((6-((4aR,5R,9R)-7-amino-3,3-difluoro-5,8,8-trimethyl-9-oxido-2,3,4,4a,5,8-hexahydro-[1,4]thiazino[2,1-f][1,2]thiazin-5-yl)-5-fluoropyridin-2-yl)carbamoyl)nicotinic acid]",
13 nM,"Cc1cc(C#N)cnc1C(=O)Nc1ccc(F)c([C@@]2(C)N=C(N)C(C)(C)[S@@]3(=O)=NCC4(CC4)C[C@@H]23)n1 [Example 48AB, N-(6-((4aS,5R,9R)-7-amino-5,8,8-trimethyl-9-oxido-4,4a,5,8-tetrahydro-2H-spiro[[1,4]-thiazino[2,1-f][1,2]thiazine-3,1′-cyclopropan]-5-yl)-5-fluoropyridin-2-yl)-5-cyano-3-methylpicolinamide]",
34 nM,"CC1(C)C(N)=N[C@](C)(c2nc(NC(=O)c3ccc(C#N)cc3Cl)ccc2F)[C@@H]2CCN=[S@@]21=O [Example 31AB, N-(6-((3aS,4R,8R)-6-amino-4,7,7-trimethyl-8-oxido-3,3a,4,7-tetrahydro-2H-isothiazolo[1,5-a][1,4]thiazin-4-yl)-5-fluoropyridin-2-yl)-2-chloro-4-cyanobenzamide]",
147 nM,"CC#Cc1ccc(C(=O)Nc2ccc(F)c([C@@]3(C)N=C(N)C(C)(C)[S@@]4(=O)=NCC(F)(F)C[C@H]34)n2)nc1 [Example 47AA, N-(6-((4aR,5R,9R)-7-amino-3,3-difluoro-5,8,8-trimethyl-9-oxido-2,3,4,4a,5,8-hexahydro-[1,4]thiazino[2,1-f][1,2]thiazin-5-yl)-5-fluoropyridin-2-yl)-5-(prop-1-yn-1-yl)picolinamide]",
14 nM,"CC1(C)C(N)=N[C@](C)(c2nc(NC(=O)c3ccc(C#N)cc3)ccc2F)[C@@H]2CCN=[S@@]21=O [Example 30AB, N-(6-((3aS,4R,8R)-6-amino-4,7,7-trimethyl-8-oxido-3,3a,4,7-tetrahydro-2H-isothiazolo[1,5-a][1,4]thiazin-4-yl)-5-fluoropyridin-2-yl)-4-cyanobenzamide]",
557 nM,"CC1(C)C(N)=N[C@](C)(c2nc(NC(=O)c3ccc(OCC(F)(F)C(F)F)cn3)ccc2F)[C@H]2CCN=[S@]21=O [Example 15BA, N-(6-((3aR,4R,8S)-6-amino-4,7,7-trimethyl-8-oxido-3,3a,4,7-tetrahydro-2H-isothiazolo[1,5-a][1,4]thiazin-4-yl)-5-fluoropyridin-2-yl)-5-(2,2,3,3-tetrafluoropropoxy)picolinamide]",
114 nM,"Cc1cc(F)cnc1C(=O)Nc1ccc(F)c([C@@]2(C)N=C(N)C(C)(C)[S@@]3(=O)=NCC(F)(F)C[C@H]23)n1 [Example 39AA, N-(6-((4aR,5R,9R)-7-amino-3,3-difluoro-5,8,8-trimethyl-9-oxido-2,3,4,4a,5,8-hexahydro-[1,4]thiazino[2,1-f][1,2]thiazin-5-yl)-5-fluoropyridin-2-yl)-5-fluoro-3-methylpicolinamide]",
117 nM,"CC1(C)C(N)=N[C@](C)(c2nc(NC(=O)c3ncc(F)cc3Cl)ccc2F)[C@H]2CCN=[S@]21=O [Example 11BA, N-(6-((3aR,4R,8S)-6-amino-4,7,7-trimethyl-8-oxido-3,3a,4,7-tetrahydro-2H-isothiazolo[1,5-a][1,4]thiazin-4-yl)-5-fluoropyridin-2-yl)-3-chloro-5-fluoropicolinamide]",
